Experimental data: patent publication US20080213410A1, “ANTI-HUMAN PAPILLOMAS VIRUS TOPICAL COMPOSITION” (priority 2007, published 2008)

Tested on: human papillomavirus (HPV) genital warts
Experiment: 15 months treatment of 90 infected patients, number of recurrent warts (Example 1)
Assay type: in vivo
Excerpt: The composition, to be applied topically or transdermally to the skin and mucous membranes, is of high interest because it triggers little or no side-effects, very little irritation, no restrictive length of application, no impact on non-infected skin, can heal surface and/or deep flesh warts and prevent the recurrence of outbreaks. The treatment consists in topically administering the composition to the HPV infected skin and mucous membranes of patients. Such physiological regions consists of, in particular, the skin of the penis, vulva (area outside the vagina), anus, scrotum, groin, or thigh and in the linings of the vagina, cervix, or rectum presenting the virus related warts. […] Two types of warts can be found in patients: acute or chronic warts. The first kind, the acute wart, can be treated by simply swiping the surface of the skin or mucous membrane with a swab, previously impregnated with the composition, and gently rubbing the skin in order to allow penetration of the composition in its deepest layers. The second kind is the chronic wart, which requires a more invasive type of treatment. Indeed, the treatment is either effected by applying to the skin or mucous surface to treat a transdermal patch, constantly and regularly diffusing the composition through the area it covers, or by using a microlet, which uses a needle rapidly piercing the skin and injecting the composition deeply in the flesh.
Posology: Application of the topical composition is effected 1 time per week through swiping of the region with a swab containing the composition in the case of an acute wart or through the use of a transdermal patch or microlet in the case of a chronic wart.
Results: Table 1 comprises the results of a 15 months treatment with the composition of the present invention on a total of 90 infected patients. Table 2 comprises the results of a 15 months treatment with liquid nitrogen on a total of 90 infected patients. The compiled data consists of the number of recurrent warts that had still developed after a 15 months treatment with either the cream of the present invention or with liquid nitrogen. These records represent direct evidence that the composition of the present invention is effective, the number of warts that had still reappeared after a 15 months long treatment of the intermittent lesion and inflammation being less important with the cream than with the liquid nitrogen. Indeed, 67% of patients treated with the composition of the present invention presented a low degree of infections after the 15 months treatment (1 to 2 recurrent warts) whereas only 13% of the patients treated with the liquid nitrogen presented similar results.

**Q.** What does the source list for N#N [liquid nitrogen]?
**A.** patients presenting a low degree of infections after the 15 months treatment (1 to 2 recurrent warts) (90 patients per treatment): 13%; Number of patients with 1 to 2 recurrent warts after a 15 months treatment (90 patients, 1 to 2 warts): 12; Number of patients with 3 to 5 recurrent warts after a 15 months treatment (90 patients, 3 to 5 warts): 49; Number of patients with 6 to 10 recurrent warts after a 15 months treatment (90 patients, 6 to 10 warts): 29
